# Like-named read-outs stand apart in the source and are kept apart here.
# Columns and labels:
# [1] = tested on: IL-23 (p19/p40); experiment: IL23-p19 ELISA, Dendritic, LPS (compound screening using DC cells); format: cell-based, Human
# Procedure: Compound Screening Using DC Cells
# Human PBMC cells (400 million) obtained from the vendor were transferred into a T-175 flask containing 15 ml RPMI media (10% FBS) and incubate for 2 hours at 37° C. After 2 hours, the media including floating cells was aspirated out carefully and 12 ml of fresh RPMI media (10% FBS) containing GMCSF (100 ng/ml) and IL4 (20 ng/ml) was added, and the flask was kept in a 37° C. incubator for 7 days.
# After 3 days, fresh GMCSF (100 ng/ml) and IL4 (20 ng/ml) were added to the flask and the incubation continued. After 7 days, the fully differentiated cells were harvested by spinning down (1200 rpm/5 min) and aspirating the media. The cells were suspended in fresh RPMI media (10% FBS) containing 50 ng/ml IFNγ (1000 U/ml) and then plated (50K/well in 100 μl) onto a white clear bottom 96 well plate and left in a 37° C. incubator for 24 hours.
# After 24 hours incubation, 100 μl of RPMI media was added containing 2× concentrated test compound per well to the above cell-culture media (final concentration becomes 1×) and the plates were pre-incubated for 1 hour at 37° C. before stimulating with LPS.
# After 1 hour compound pre-incubation, 10 piper well of 20× concentrated LPS solution in RPMI media was added to give a final concentration of 1 μg/ml. The mixture was shaken and incubated the plates at 37° C. for an additional 18 hours.
# 155 μl of the supernatant was harvested from each well carefully (without the tip touching the bottom of the well) and to the remaining 50 μl/well of the cell culture plate was added 50 μl of Cell Titer Glo reagent. The mixture was incubated for 1-2 minutes on a shaker and the plate was read for luminescence intensity to determine the compound cytotoxicity. The cell culture supernatant collected above was used to carry out IL23 ELISA (65 μl -Supernatant) and IL10 ELISA (90 μl—Supernatant) as described below.
# Human IL-23 (p19/p40) ELISA Protocol (e-Biosciences)
# To 10.5 ml PBS add 50 μl of anti-IL23 (p19) was added capture antibody (2.5 μg/ml). The mixture was mixed well and 100 μl of the coating solution was added to each well of the 96 well white plates from Pierce. The wells were covered and incubated overnight at 4° C.
# The anti-IL23 (p19)-antibody-coated plates were washed 2× using TBST (use plate washer) and blocked using 200 μl of 0.5% Casein for 1.5-2 hours at room temperature with shaking.
# The plates were washed 2× using TBST and the supernatant was transferred (65 μl/well) to the above pre-blocked/IL23(p19)-antibody-coated 96 well plate, and incubated at room temperature for 1.5 hours with shaking.
# The plates were washed 4× using TBST (plate washer) and 100 μl/well detection antibody solution prepared from 2 μl of biotin labeled anti-IL-12 (p40/p70) antibody in 11 ml 1% BSA/PBS solution (1-5000 dilution) was added. The plates were incubated for 1 hour with shaking at Room temperature.
# Again, the plates were washed 4× with TBST and 100 μl of HRP labeled Streptavidin (R&D Systems) solution (10 μl/10 ml 1% BSA solution) was added, and the plates were incubated at room temperature for another 45 minutes with shaking.
# After 45 minutes, the plates were washed with TBST 4× and 100 ul/well Super Signal ELISA Pico Chemiluminescent Substrate from Pierce (3.5 ml A+3.5 ml B+3.5 ml MQ water) was added. The plates were shaken for 1-2 minutes then read on a plate reader.
# [2] = tested on: IL-23p19; experiment: LPS induced IL23p19 in THP-1 cells (with IFNγ primed) assay; format: cell-based, Human
# Description: LPS Induced IL23p19 in THP-1 Cells (with IFNγ Primed) Assay
# THP-1 Cells (ATCC, Cat#TIB-202), Dimethyl Sulfoxide (DMSO) (Sigma-Aldrich, Cat#D2650), RPMI 1640 (Cellgro, Cat#10-040-CM), Fetal Bovine Serum (Sigma, Cat#F4135), Albumin From Bovine Serum (BSA) (Sigma-Aldrich, Cat#A7906), LPS (Serotype K-235, Sigma, Product Number L 2143), IFNγ (Peprotech, Cat#300-02) Capture antibody: Human IL-23p19 ELISA (e-Bioscience, Cat. #14-7238-85), Detection antibody: Primary Mouse Biotinylated anti-human IL-12(p40/p70) (e-Bioscience, Cat. #13-7129-85), Secondary HRP-conjugated Streptavidin (R&D Systems, Cat#DY998), 1×PBST Washing Buffer (PBS-Tween tablet) (VWR International, Cat#80058-558), ELISA Blocking Buffer (PBS with 1% BSA), ELISA Dilution Buffer (PBS with 1% BSA), 384 Well Flat-Bottom, MaxiSorp Black Immuno Plates (Thermo Scientific, Cat#12-565-346), 384 Well Flat-Bottom, White Tissue Culture Plates (Thermo Scientific, Cat#12-565-343), Super Signal ELISA Pico Chemiluminescent Substrate (Thermo Scientific, Cat#37070), Cell Titer Glo reagent (Promega, Cat#G7573), Positive control, IKK2VI inhibitor (Calbiochem, Cat#401483), AquaMax 4000 plate washer (Molecular Devices), Luminometer, Wallac Victor2 1420 Multilabel Counter.
# On day 1, 50K/well THP-1 cells were seeded and primed with IFNγ (50 ng/mL) in 384-well plates for about 18 hours in RPMI media with 10% FBS. On day 2, the compound was serially diluted in DMSO from 5 mM in 3-fold dilutions, and then diluted 1:125 in RPMI media with 10% FBS. 50 μL/well 2× compound was added to 50 μL/well THP-1 cells (with IFNγ primed) in duplicate in 384 well tissue culture plates. The cells were pre-incubated with compound for 1 hour at 37° C., 5% CO2 before addition of 10 μL/well 11×LPS to give a final concentration of 1 ug/mL LPS. Day 3, after stimulation for 18 hours at 37° C., 5% CO2, the assay plate was centrifuged and 70 μL/well supernatant was harvested. IL-23p19 protein in 70 μL/well of supernatant was measured by sandwich ELISA, and 25 μl/well Cell Titer Glo reagent was added to the remaining cells to measure compound toxicity.
# Maxisorp immuno ELISA plates were pre-coated with 25 μL/well of anti-IL-23p19 capture antibody (2.5 ug/mL) in PBS overnight at room temperature. After washing with 1× PBST, the plates were blocked using 100 μL/well of 1% BSA in PBS for 2 hours at room temperature. The plates were washed three times with 1×PBST and 70 μL/well supernatant were added. The plates were incubated at room temperature for 2 hours with shaking and washed three times with 1×PBST. 25 μL/well of biotin labeled anti-IL-12(p40/p70) detection antibody (100 ng/mL) in PBS with 1% BSA was added and the plates were incubated at room temperature for 2 hours with shaking. After washing three times with 1×PBST, 25 μL/well of streptavidin-HRP (1:200) in PBS with 1% BSA was added and the plates were incubated at room temperature for 20 minutes with shaking. The plates were washed three times with 1× PBST and 25 μL/well of Super Signal ELISA Pico Chemiluminescent Substrate were added. The plates were read with a luminometer, and the chemiluminescence values were entered into Athena (Rigel) for curve fitting, EC50 calculation, and database storage.
# [3] = Homo sapiens, 18 h, PBMC-derived DC cells, IFNγ primed, LPS 1 μg/ml, 18 hours, 10 pt, read-out: IL23-p19 ELISA, Dendritic, LPS, 10 pt, EC50
# [4] = Homo sapiens, THP-1, 18 h, THP-1 cells, IFNγ primed, LPS 1 ug/mL, 18 hours, 10 pt, read-out: IL23-p19 ELISA, THP1-IFNy, LPS, 10 pt EC50
SMILES,"EC50 [1, 3] [µM]","EC50 [2, 4] [µM]",other results
"Cn1cc(-c2ccc(C(=O)Nc3cn(CC(C)(C)O)nc3-c3ccccn3)o2)cn1 [Compound I-1, N-(1-(2-hydroxy-2-methylpropyl)-3-(pyridin-2-yl)-1H-pyrazol-4-yl)-5-(1-methyl-1H-pyrazol-4-yl)furan-2-carboxamide 2,2,2-trifluoroacetate]",,,"EC50 ([1]; Homo sapiens, 18 h, read-out: IL23-p19 ELISA, Dendritic, LPS, 10 pt, EC50 (μM)): 3.73 µM; EC50 ([2]; Homo sapiens, THP-1, 18 h, read-out: IL23-p19 ELISA, THP1-IFNy, LPS, 10 pt EC50 (μM)): 5.66 µM"
"CC(C)(O)Cn1cc(NC(=O)c2ccc(-c3cn[nH]c3)o2)c(-c2ccccn2)n1 [Compound I-3, N-(1-(2-hydroxy-2-methylpropyl)-3-(pyridin-2-yl)-1H-pyrazol-4-yl)-5-(1H-pyrazol-4-yl)furan-2-carboxamide]",0.362,0.424,
"CCOCCn1cc(NC(=O)c2ccc(-c3cnn(C(=O)OC(C)(C)C)c3)o2)c(-c2ccccn2)n1 [Compound I-4, tert-butyl 4-(5-((1-(2-ethoxyethyl)-3-(pyridin-2-yl)-1H-pyrazol-4-yl)carbamoyl)furan-2-yl)-1H-pyrazole-1-carboxylate]",0.619,0.713,
"COCCn1cc(NC(=O)c2ccc(-c3cn[nH]c3)o2)c(-c2ccccn2)n1 [Compound I-5, N-(1-(2-methoxyethyl)-3-(pyridin-2-yl)-1H-pyrazol-4-yl)-5-(1H-pyrazol-4-yl)furan-2-carboxamide]",0.136,0.0826,
"COCCn1cc(NC(=O)c2ccc(-c3c[nH]nc3C)o2)c(-c2ccccn2)n1 [Compound I-6, N-(1-(2-methoxyethyl)-3-(pyridin-2-yl)-1H-pyrazol-4-yl)-5-(3-methyl-1H-pyrazol-4-yl)furan-2-carboxamide formic acid]",,0.264,"EC50 ([1]; PBMC-derived DC cells, IFNγ primed, LPS 1 μg/ml, 18 hours, 10 pt, formic acid, read-out: IL23-p19 ELISA, Dendritic, LPS, 10 pt, EC50): 0.993 µM"
"COCCn1cc(NC(=O)c2ccc(-c3cn[nH]c3)o2)c(-c2ncccn2)n1 [Compound I-7, N-(1-(2-methoxyethyl)-3-(pyrimidin-2-yl)-1H-pyrazol-4-yl)-5-(1H-pyrazol-4-yl)furan-2-carboxamide]",0.399,0.433,
"COCCn1cc(NC(=O)c2ccc(-c3c[nH]nc3C)o2)c(-c2ncccn2)n1 [Compound I-8, N-(1-(2-methoxyethyl)-3-(pyrimidin-2-yl)-1H-pyrazol-4-yl)-5-(3-methyl-1H-pyrazol-4-yl)furan-2-carboxamide]",0.429,0.88,
"COCCn1cc(NC(=O)c2ccc(-c3c[nH]nc3C)o2)c(-c2ccccn2)n1 [Compound I-9, N-(1-(2-methoxyethyl)-3-(pyridin-2-yl)-1H-pyrazol-4-yl)-5-(3-methyl-1H-pyrazol-4-yl)furan-2-carboxamide]",,,"EC50 ([1]; PBMC-derived DC cells, IFNγ primed, LPS 1 μg/ml, 18 hours, 10 pt, read-out: IL23-p19 ELISA, Dendritic, LPS, 10 pt, EC50): 0.309 µM; EC50 ([2]; THP-1 cells, IFNγ primed, LPS 1 ug/mL, 18 hours, 10 pt, read-out: IL23-p19 ELISA, THP1-IFNy, LPS, 10 pt EC50): 0.281 µM"
"Cn1cc(NC(=O)c2ccc(-c3cn[nH]c3)o2)c(-c2ccc(N3CCOCC3)cn2)n1 [Compound I-105, N-(1-methyl-3-(5-morpholinopyridin-2-yl)-1H-pyrazol-4-yl)-5-(1H-pyrazol-4-yl)furan-2-carboxamide]",0.0265,,

# The next lines start with results.
"EC50 [1, 3] [µM]","EC50 [2, 4] [µM]",SMILES,other results
0.0987,0.0574,"CCO[C@@H]1CC[C@H](n2cc(NC(=O)c3csc(-c4cn[nH]c4)n3)c(-c3ccccn3)n2)C1 (relative stereo) [II-147, N-(1-((cis)-3-ethoxycyclopentyl)-3-(pyridin-2-yl)-1H-pyrazol-4-yl)-2-(1H-pyrazol-4-yl)thiazole-4-carboxamide]",
0.0568,0.0343,"O=C(Nc1cn([C@H]2CC[C@@H](O)C2)nc1-c1ccccn1)c1csc(-c2cn[nH]c2)n1 (relative stereo) [II-149, N-(1-((cis)-3-hydroxycyclopentyl)-3-(pyridin-2-yl)-1H-pyrazol-4-yl)-2-(1H-pyrazol-4-yl)thiazole-4-carboxamide]",
0.0622,0.0649,"O=C(Nc1cn([C@H]2CC[C@H](O)C2)nc1-c1ccccn1)c1csc(-c2cn[nH]c2)n1 (relative stereo) [II-151, N-(1-((trans)-3-hydroxycyclopentyl)-3-(pyridin-2-yl)-1H-pyrazol-4-yl)-2-(1H-pyrazol-4-yl)thiazole-4-carboxamide]",
0.258,,"CCO[C@H]1C[C@@H](n2cc(NC(=O)c3csc(-c4c[nH]nc4C)n3)c(-c3ccccn3)n2)C1 [II-92, N-(1-((1,3-cis)-3-ethoxycyclobutyl)-3-(pyridin-2-yl)-1H-pyrazol-4-yl)-2-(3-methyl-1H-pyrazol-4-yl)thiazole-4-carboxamide]",

# Source: US10208074B2, “Pyrazole compounds and method for making and using the compounds” (Rigel Pharmaceuticals, Inc., priority 2015, dated 2019)
